Results published in patent US20120010206A1, “IMIDAZOLOPYRIDINE COMPOUNDS USEFUL FOR THE TREATMENT OF DEGENERATIVE AND INFLAMMATORY DISEASES” (priority 2006, published 2012).

target: T1, TAK1-TAB1 fusion protein (Homo sapiens, UniProt O43318); experiment: In vitro TAK1 kinase assay (33P-ATP, casein substrate); format: biochemical; conditions: semi-quantitative score, at least two independent experiments
T1 construct: purchased Upstate 14-600
T1 sequence (O43318 with tags, fused parts or gaps limits assumed): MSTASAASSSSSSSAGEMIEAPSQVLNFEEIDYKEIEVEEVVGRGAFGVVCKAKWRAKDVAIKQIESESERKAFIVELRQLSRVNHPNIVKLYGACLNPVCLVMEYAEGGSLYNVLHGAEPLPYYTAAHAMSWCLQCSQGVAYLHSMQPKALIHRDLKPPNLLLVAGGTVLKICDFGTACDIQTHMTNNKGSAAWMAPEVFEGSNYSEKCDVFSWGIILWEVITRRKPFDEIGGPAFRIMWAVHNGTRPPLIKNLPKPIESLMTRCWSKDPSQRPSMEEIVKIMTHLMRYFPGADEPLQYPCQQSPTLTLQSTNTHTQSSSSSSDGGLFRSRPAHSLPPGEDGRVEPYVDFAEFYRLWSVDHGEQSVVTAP
Experimental: For assessing TAK1 inhibition, active TAK1-TAB1 fusion protein was used from Upstate (Cat. No, 14-600). Kinase reactions are set up in 96-well polypropylene plates in 25 μL containing 0.5 mU TAK1-TAB1 fusion protein, […], 0.01 μCi/μL [^33P]-γ-ATP, 0.1 mg/mL casein substrate in 1× reaction buffer containing 10 mM MOPS pH 7.0, 1 mM EDTA.
Starting from the compound master stocks (all at 10 mM concentration in 100% DMSO) a 3-fold serial dilution is made in 96-well plates in 100% DMSO. Plates are further diluted […] in H2O containing 3.5% DMSO, to obtain an intermediate work stock with compounds at 5× the final assay concentration in 5% DMSO.
5 μL of the intermediate stock is transferred into V-bottom 96 well polypropylene plates and 11 μL of Enzyme mix is added. Enzyme mix is made by combining 5 μL 5× reaction buffer ([…] pH 7.0, 1 mM EDTA), 5 μL casein (Sigma) diluted in H2O to 0.5 mg/mL and 1 μL of TAK1-TAB1 fusion protein that was prediluted to 0.5 mU/μL in 1× enzyme dilution buffer (20 mM MOPS pH 7.0, 0.1 mM EDTA, 0.01% Brij-35, 5% glycerol, 1 mM DTT, 1 mg/ml BSA).
The reactions are started by the addition of 9 μL of mixture containing ATP (20.83 uM) and [^33P]-γ-ATP (0.028 μCi/μL).
The assay is stopped 90 minutes after incubation at 30° C. by the addition of 25 μL phosphoric acid (150 mM). The label incorporated into the casein substrate is separated from labeled unincorporated ATP by filtration onto 96-well filter plates using a harvester device. After 6 washes with 75 mM phosphoric acid, the bottom of the filter plates are sealed, and incorporated label is quantified after addition of 40 μL scintillation fluid using TopCount.
Based on these percent inhibition data obtained in at least two independent experiments for the compounds, compounds are ranked using semi-quantitative scores. Table A below lists a number of compounds which have been or can be prepared according to the synthetic methods described herein. Semi-quantitative score: • *>3001 nM • ** 1001-3000 nM • *** 101-1000 nM • ****<100 nM

| SMILES | IC50 [µM] |
| --- | --- |
| CC(C)N1CCN(c2ccc(Nc3ccc(-c4ccc(O)c(F)c4)n4ccnc34)cc2)CC1 [Compound 93] | 1 to 3 |
| O=c1cc(-c2ccc(Nc3ccc(N4CCC(F)(F)CC4)cc3)c3nccn23)cc[nH]1 [Compound 117, 4-{8-[4-(4,4-Difluoro-piperidin-1-yl)-phenylamino]-imidazo[1,2-a]pyridin-5-yl}-1H-pyridin-2-one] | > 3 |
| C[C@@H]1CN(c2ccc(Nc3ccc(-c4cc[nH]c(=O)c4)n4ccnc34)cc2)C[C@H](C)O1 [Compound 113, 4-{8-[4-((2R,6S)-2,6-Dimethyl-morpholin-4-yl)-phenylamino)-imidazo[1,2-a]pyridin-5-yl}-1H-pyridin-2-one] | 1 to 3 |
| O=c1cc(-c2ccc(Nc3ccc(N4CCCC4)c(Cl)c3)c3nccn23)cc[nH]1 [Compound 125, 4-[8-(3-Chloro-4-pyrrolidin-1-yl-phenylamino)-imidazo[1,2-a]pyridin-5-yl]-1H-pyridin-2-one] | > 3 |
| O=c1cc(-c2ccc(Nc3ccc(N4CCN(CC(F)F)CC4)cc3)c3nccn23)cc[nH]1 [Compound 110, 4-(8-{4-[4-(2,2-Difluoro-ethyl)-piperazin-1-yl]-phenylamino}-imidazo[1,2-a]pyridin-5-yl)-1H-pyridin-2-one] | > 3 |
| O=c1cc(-c2ccc(Nc3ccc(N4CCC(N5CCC(O)CC5)CC4)cc3)c3nccn23)cc[nH]1 [Compound 123, 4-{8-[4-(4-Hydroxy-[1,4′]bipiperidinyl-1′-yl)-phenylamino]-imidazo[1,2-a]pyridin-5-yl}-1H-pyridin-2-one] | 1 to 3 |
| O=c1cc(-c2ccc(Nc3ccc(N4CCS(=O)(=O)CC4)cc3)c3nccn23)cc[nH]1 [Compound 112, 4-{8-[4-(1,1-Dioxo-1lambda*6*- thiomorpholin-4-yl)-phenylamino]-imidazo[1,2-a]pyridin-5-yl}-1H-pyridin-2-one] | > 3 |
| O=c1cc(-c2ccc(Nc3ccc(N4CCCCC4)cc3)c3nccn23)cc[nH]1 [Compound 115, 4-[8-(4-Piperidin-1-yl-phenylamino)-imidazo[1,2-a]pyridin-5-yl]-1H-pyridin-2-one] | 1 to 3 |
| CC1CCN(C2CCN(C(=O)c3ccc(Nc4ccc(-c5ccc6c(c5)CNC6=O)n5ccnc45)cc3)CC2)CC1 [Compound 55, 5-{8-[4-(4-Methyl-[1,4′]bipiperidinyl-1′-carbonyl)-phenylamino]-imidazo [1,2-a]pyridin-5-yl}-2,3-dihydro-isoindol-1-one] | 0.101 to 1 |
| O=c1cc(-c2ccc(Nc3ccc(N4CCC(F)CC4)cc3)c3nccn23)cc[nH]1 [Compound 116, 4-{8-[4-(4-Fluoro-piperidin-1-yl)-phenylamino]-imidazo[1,2-a]pyridin-5-yl}-1H-pyridin-2-one] | 1 to 3 |
| CC1CCCN(C2CCN(C(=O)c3ccc(Nc4ccc(-c5ccc6c(c5)CNC6=O)n5ccnc45)cc3)CC2)C1 (stereo not shown) [Compound 54, 5-{8-[4-(3-Methyl-[1,4′]bipiperidinyl-1′-carbonyl)-phenylamino]-imidazo [1,2-a]pyridin-5-yl}-2,3-dihydro-isoindol-1-one] | 0.101 to 1 |
| O=C1NCc2cc(-c3ccc(Nc4ccc(-n5cccn5)cc4)c4nccn34)ccc21 [Compound 30, 5-(8-(4-(1H-pyrazol-1-yl)phenylamino)imidazo[1,2-a]pyridin-5-yl)isoindolin-1-one] | 1 to 3 |
| O=c1cc(-c2ccc(Nc3ccc(N4CCCC(F)(F)C4)cc3)c3nccn23)cc[nH]1 [Compound 118, 4-{8-[4-(3,3-Difluoro-piperidin-1-yl)-phenylamino]-imidazo[1,2a]pyridin-5-yl}-1H-pyridin-2-one] | > 3 |

Further lines, results first:

| IC50 [µM] | SMILES |
| --- | --- |
| 0.101 to 1 | COCCNC(=O)c1ccc(Nc2ccc(-c3ccc4c(c3)CNC4=O)n3ccnc23)cc1 [Compound 58, N-(2-methoxyethyl)-4-(5-(1-oxoisoindolin-5-yl)imidazo[1,2-a]pyridin-8-ylamino)benzamide] |
| 0.101 to 1 | CC(C)N1CCN(c2ccc(Nc3ccc(-c4cc[nH]c(=O)c4)n4ccnc34)cc2Cl)CC1 [Compound 105] |
| 0.101 to 1 | C[C@@H]1CN(C)[C@@H](C)CN1c1ccc(Nc2ccc(-c3cc[nH]c(=O)c3)n3ccnc23)cc1 [Compound 99] |
| 0.101 to 1 | CC(=O)NCCNC(=O)c1ccc(Nc2ccc(-c3ccc4c(c3)CNC4=O)n3ccnc23)cc1 [Compound 57, N-(2-acetamidoethyl)-4-(5-(1-oxoisoindolin-5-yl)imidazo[1,2-a]pyridin-8-ylamino)benzamide] |
| 0.101 to 1 | O=C1NCc2cc(-c3ccc(Nc4ccc(-n5cncn5)cc4)c4nccn34)ccc21 [Compound 31, 5-(8-(4-(1H-1,2,4-triazol-1-yl)phenylamino)imidazo[1,2-a]pyridin-5-yl)isoindolin-1-one] |
| 0.101 to 1 | CC1CCCN(C2CCN(c3ccc(Nc4ccc(-c5cc[nH]c(=O)c5)n5ccnc45)cc3)CC2)C1 (stereo not shown) [Compound 122, 4-{8-[4-(3-Methyl-[1,4′]bipiperidinyl-1′-yl)-phenylamino]-imidazo[1,2-a]pyridin-5-yl}-1H-pyridin-2-one] |
| 0.101 to 1 | C[C@@H]1CN(C)[C@@H](C)CN1c1ccc(Nc2ccc(-c3cc[nH]c(=O)c3)n3ccnc23)cc1F [Compound 97] |
| 0.101 to 1 | O=c1cc(-c2ccc(Nc3ccc(C4CCNCC4)cc3)c3nccn23)cc[nH]1 [Compound 100] |
| 0.101 to 1 | O=C(NCc1cccc(-n2cccc2)c1)c1ccc(Nc2ccc(-c3ccc4c(c3)CNC4=O)n3ccnc23)cc1 [Compound 35, 4-[5-(1-Oxo-2,3-dihydro-1H-isoindol-5-yl)-imidazo[1,2-a]pyridin-8-ylamino]-N-(3-pyrrol-1-yl-benzyl)-benzamide] |
| 0.101 to 1 | C[C@@H]1CN(c2ccc(Nc3ccc(-c4cc[nH]c(=O)c4)n4ccnc34)cc2F)C[C@H](C)N1C [Compound 101] |
| < 0.1 | O=C(c1ccc(Nc2ccc(-c3cc[nH]c(=O)c3)n3ccnc23)cc1)N1CCC(N2CCCCC2)CC1 [Compound 102] |
| 0.101 to 1 | C[C@@H]1CN(c2ccc(Nc3ccc(-c4cc[nH]c(=O)c4)n4ccnc34)cc2)C[C@H](C)N1C [Compound 98] |
| 0.101 to 1 | c1cn2c(-c3cn[nH]c3)ccc(Nc3ccc(N4CCC(N5CCCCC5)CC4)cc3)c2n1 [Compound 119, (4[1,4′]Bipiperidinyl-1′-yl-phenyl)-[5-(1H-pyrazol-4-yl)-imidazo[1,2-a]pyridin-8-yl]-amine] |
| 0.101 to 1 | O=C(NCCN1CCCCC1)c1ccc(Nc2ccc(-c3ccc4c(c3)CNC4=O)n3ccnc23)cc1 [Compound 56, 4-(5-(1-oxoisoindolin-5-yl)imidazo[1,2-a]pyridin-8-ylamino)-N-(2-(piperidin-1-yl)ethyl)benzamide] |
| 0.101 to 1 | O=c1cc(-c2ccc(Nc3ccc(N4CCN5CCCCC5C4)cc3)c3nccn23)cc[nH]1 (stereo not shown) [Compound 114, 4-{8′-[4-(Octahydro-pyrido[1,2-a]pyrazin-2-yl)-phenylamino]-imidazo[1,2-a]pyridin-5-yl}-1H-pyridin-2-one] |
| 0.101 to 1 | CC(C)N1CCN(c2ccc(Nc3ccc(-c4cc[nH]c(=O)c4)n4ccnc34)cc2F)CC1 [Compound 103] |
| 0.101 to 1 | CC1CCN(C2CCN(c3ccc(Nc4ccc(-c5cc[nH]c(=O)c5)n5ccnc45)cc3)CC2)CC1 [Compound 121, 4-{8-[4-(4-Methyl-[1,4′]bipiperidinyl-1′-yl)-phenylamino]-imidazo[1,2-a]pyridin-5-yl}-1H-pyridin-2-one] |
| 0.101 to 1 | CCN1CCN(c2ccc(Nc3ccc(-c4cc[nH]c(=O)c4)n4ccnc34)cc2Cl)CC1 [Compound 104] |
